One test has as its system MOLM-13 cells. Description: Cell viability assay (CellTiter-Glo) in MOLM-13 cells, alone or with gilteritinib. It counts as cell-based. Conditions: Homo sapiens, MOLM-13 cells, three days, CellTiter-Glo.
A further test relates to MV4;11 cells. Description: Cell viability assay (CellTiter-Glo) in MV4;11 cells, alone or with gilteritinib. It counts as cell-based. Conditions: Homo sapiens, MV4;11 cells, three days, CellTiter-Glo, read-out: MV4.
The mark [1] stands for this setting: MOLM-13, 72 h, compound alone (without gilteritinib), read-out: MOLM-13 IC50.
[2] abbreviates: MOLM-13, 72 h, with gilteritinib 20 nM, read-out: MOLM-13 IC50 gilteritinib.
The mark [3] stands for this setting: MV4-11, 72 h, compound alone (without gilteritinib), 11 IC50.
[4] abbreviates: MV4-11, 72 h, with gilteritinib 10 nM, 11 IC50 gilteritinib.
[5] abbreviates: MOLM-13, 72 h, compound with gilteritinib 20 nM, read-out: MOLM-13 IC50 gilteritinib.
[6] abbreviates: MV4-11, 72 h, compound with gilteritinib 10 nM, 11 IC50 gilteritinib.

Read-outs that look alike come from different tables or passages of the source.

For the compound `O=C(CN1CCCC(N2CCN(c3ccccn3)CC2)C1)NCc1ccc2c(c1)C(=O)N(C1CCC(=O)NC1=O)C2=O` (stereo not drawn) [GS-359, N-((2-(2,6-Dioxopiperidin-3-yl)-1,3-dioxoisoindolin-5-yl)methyl)-2-(3-(4-(pyridin-2-yl)piperazin-1-yl)piperidin-1-yl)acetamide], the IC50 in the test on MOLM-13 cells (setting [1]), in the test on MOLM-13 cells (setting [2]), in the test with MV4;11 cells (setting [3]) and in the test on MV4;11 cells (setting [4]) was above 1000 nM each time.
Regarding `Cc1nn([C@H]2C[C@@H](CCCNc3ccc4c(c3)C(=O)N(C3CCC(=O)NC3=O)C4=O)C2)cc1-c1cnc2ccc(C3CCOCC3)cc2n1` (stereo partly drawn) [GS-223, 2-(2,6-Dioxopiperidin-3-yl)-5-((3-(cis-3-(3-methyl-4-(7-(tetrahydro-2H-pyran-4-yl)quinoxalin-2-yl)-1H-pyrazol-1-yl)cyclobutyl)propyl)amino)isoindoline-1,3-dione], the IC50 in the test on MOLM-13 cells (setting [1]), in the test with MOLM-13 cells (setting [2]), in the test on MV4;11 cells (setting [3]) and in the test on MV4;11 cells (setting [4]) was below 10 nM throughout.
Take `O=C1CCC(N2C(=O)c3ccc(NCCCC4CC(n5cc(N6CCOCC6)cn5)C4)cc3C2=O)C(=O)N1` (stereo not drawn) [GS-437, 2-(2,6-dioxopiperidin-3-yl)-5-((3-(3-(4-morpholino-1H-pyrazol-1-yl)cyclobutyl)propyl)amino)isoindoline-1,3-dione]: the IC50 with MOLM-13 cells (setting [1]) is above 1000 nM; in the test with MOLM-13 cells (setting [5]) it was 100 to 1000 nM; in the test with MV4;11 cells (setting [3]) it was above 1000 nM; in the test with MV4;11 cells (setting [6]), above 1000 nM.
Regarding `O=C1CCC(N2Cc3c(Nc4ccnc(NC5CCC(N6CCC(n7cc(-c8cnc9ccccc9n8)cn7)CC6)C5)n4)cccc3C2=O)C(=O)N1` (stereo not drawn) [GS-092, 3-(1-Oxo-4-((2-((3-(4-(4-(quinoxalin-2-yl)-1H-pyrazol-1-yl)piperidin-1-yl)cyclopentyl)amino)pyrimidin-4-yl)amino)isoindolin-2-yl)piperidine-2,6-dione], the IC50 in the test on MOLM-13 cells (setting [1]), in the test with MOLM-13 cells (setting [2]), in the test on MV4;11 cells (setting [3]) and in the test on MV4;11 cells (setting [4]) was above 1000 nM in each case.
Take `O=C1CCC(N2Cc3cc(CNC(=O)Nc4cccc(N5CCC(c6ccccc6)CC5)c4)ccc3C2=O)C(=O)N1` (stereo not drawn) [GS-514, 1-((2-(2,6-Dioxopiperidin-3-yl)-1-oxoisoindolin-5-yl)methyl)-3-(3-(4-phenylpiperidin-1-yl)phenyl)urea]: the IC50 is below 10 nM in the test on MOLM-13 cells (72 h, compound alone (without gilteritinib), read-out: MOLM-13 IC50); below 10 nM in the test on MOLM-13 cells (72 h, compound with gilteritinib 20 nM, read-out: MOLM-13 IC50 gilteritinib); below 10 nM in the test with MV4;11 cells (72 h, compound alone (without gilteritinib), 11 IC50); below 10 nM with MV4;11 cells (72 h, compound with gilteritinib 10 nM, 11 IC50 gilteritinib).
Turning to `CN1CCN(c2ccc3ncc(-c4cn([C@H]5C[C@H](CNc6ccc7c(c6)C(=O)N(C6CCC(=O)NC6=O)C7=O)C5)nc4C4CC4)nc3c2)CC1` (stereo partly drawn) [GS-463, 5-(((trans-3-(3-cyclopropyl-4-(7-(4-methylpiperazin-1-yl)quinoxalin-2-yl)-1H-pyrazol-1-yl)cyclobutyl)methyl)amino)-2-(2,6-dioxopiperidin-3-yl)isoindoline-1,3-dione], the IC50 was 10 to 100 nM with MOLM-13 cells (setting [1]), below 10 nM in the test on MOLM-13 cells (setting [5]), 10 to 100 nM with MV4;11 cells (setting [3]) and below 10 nM in the test on MV4;11 cells (setting [6]).
`O=C1CCC(N2C(=O)c3ccc(NCCCCS(=O)(=O)N4CCC(n5cc(-c6cnc7ccccc7n6)cn5)CC4)cc3C2=O)C(=O)N1` (stereo not drawn) [GS-129, 2-(2,6-Dioxopiperidin-3-yl)-5-((4-((4-(4-(quinoxalin-2-yl)-1H-pyrazol-1-yl)piperidin-1-yl)sulfonyl)butyl)amino)isoindoline-1,3-dione]: the IC50 in the test with MOLM-13 cells (setting [1]) is above 1000 nM; with MOLM-13 cells (setting [2]), 100 to 1000 nM; in the test with MV4;11 cells (setting [3]), above 1000 nM; in the test on MV4;11 cells (setting [4]), 100 to 1000 nM.
As to `O=C1CCC(N2Cc3cc(CCCCCCCn4cc(-c5cnc6ccccc6n5)cn4)ccc3C2=O)C(=O)N1` (stereo not drawn) [GS-375, 3-(1-Oxo-5-(7-(4-(quinoxalin-2-yl)-1H-pyrazol-1-yl)heptyl)isoindolin-2-yl)piperidine-2,6-dione], the IC50 is above 1000 nM with MOLM-13 cells (setting [1]), 10 to 100 nM with MOLM-13 cells (setting [2]), 100 to 1000 nM in the test with MV4;11 cells (setting [3]) and 10 to 100 nM in the test with MV4;11 cells (setting [4]).
For the compound `Cc1cccc(-c2cnn(CCCCCCNc3ccc4c(c3)C(=O)N(C3CCC(=O)NC3=O)C4=O)c2)c1` (stereo not drawn) [GS-497, 2-(2,6-dioxopiperidin-3-yl)-5-((6-(4-(m-tolyl)-1H-pyrazol-1-yl)hexyl)amino)isoindoline-1,3-dione], the IC50 was 100 to 1000 nM with MOLM-13 cells (setting [1]), below 10 nM in the test on MOLM-13 cells (setting [5]), 10 to 100 nM with MV4;11 cells (setting [3]) and below 10 nM in the test with MV4;11 cells (setting [6]).
Regarding `O=C1CCC(N2C(=O)c3ccc(NCCCCCC(=O)N4CCC(n5cc(-c6ccccn6)cn5)CC4)cc3C2=O)C(=O)N1` (stereo not drawn) [GS-053, 2-(2,6-Dioxopiperidin-3-yl)-5-((6-oxo-6-(4-(4-(pyridin-2-yl)-1H-pyrazol-1-yl)piperidin-1-yl)hexyl)amino)isoindoline-1,3-dione], the IC50 with MOLM-13 cells (setting [1]) was 100 to 1000 nM; with MOLM-13 cells (setting [2]), below 10 nM; in the test with MV4;11 cells (setting [3]), 10 to 100 nM; in the test with MV4;11 cells (setting [4]) it was below 10 nM.
For the compound `O=C1CCC(N2C(=O)c3ccc(NCCCCCC4(N5CCC(n6cc(-c7cnc8ccccc8n7)cn6)CC5)CC4)cc3C2=O)C(=O)N1` (stereo not drawn) [GS-123, 2-(2,6-Dioxopiperidin-3-yl)-5-((5-(1-(4-(4-(quinoxalin-2-yl)-1H-pyrazol-1-yl)piperidin-1-yl)cyclopropyl)pentyl)amino)isoindoline-1,3-dione], the IC50 was above 1000 nM in the test on MOLM-13 cells (setting [1]), below 10 nM in the test with MOLM-13 cells (setting [2]), 100 to 1000 nM in the test on MV4;11 cells (setting [3]) and 100 to 1000 nM in the test with MV4;11 cells (setting [4]).
For `O=C1CCC(N2C(=O)c3ccc(NC[C@H]4C[C@H](n5cc(-c6cccc(NC7CCOCC7)n6)c(C6CC6)n5)C4)cc3C2=O)C(=O)N1` (stereo partly drawn) [GS-441, 5-(((trans-3-(3-cyclopropyl-4-(6-((tetrahydro-2H-pyran-4-yl)amino)pyridin-2-yl)-1H-pyrazol-1-yl)cyclobutyl)methyl)amino)-2-(2,6-dioxopiperidin-3-yl)isoindoline-1,3-dione], the IC50 with MOLM-13 cells (setting [1]) is 10 to 100 nM; in the test with MOLM-13 cells (setting [5]) it was 100 to 1000 nM; in the test with MV4;11 cells (setting [3]) it was above 1000 nM; in the test with MV4;11 cells (setting [6]), 10 to 100 nM.
`O=C1CCC(N2C(=O)c3ccc(NCC4CC(n5cc(-c6cnc7cccc(F)c7n6)cn5)C4)cc3C2=O)C(=O)N1` (stereo not drawn) [GS-394, 2-(2,6-Dioxopiperidin-3-yl)-5-(((3-(4-(8-fluoroquinoxalin-2-yl)-1H-pyrazol-1-yl)cyclobutyl)methyl)amino)isoindoline-1,3-dione]: the IC50 in the test with MOLM-13 cells (setting [1]) is above 1000 nM; with MOLM-13 cells (setting [2]), 10 to 100 nM; in the test on MV4;11 cells (setting [3]) it was 100 to 1000 nM; with MV4;11 cells (setting [4]), 10 to 100 nM.
`O=C1CCC(N2C(=O)c3ccc(NCCC[C@H]4C[C@@H](n5cc(-c6cnc7ccc(NC8CCNCC8)cc7n6)cn5)C4)cc3C2=O)C(=O)N1` (stereo partly drawn) [GS-214, 2-(2,6-Dioxopiperidin-3-yl)-5-((3-(cis-3-(4-(7-(piperidin-4-ylamino)quinoxalin-2-yl)-1H-pyrazol-1-yl)cyclobutyl)propyl)amino)isoindoline-1,3-dione]: the IC50 with MOLM-13 cells (setting [1]) is above 1000 nM; in the test on MOLM-13 cells (setting [2]), 10 to 100 nM; in the test on MV4;11 cells (setting [3]), 100 to 1000 nM; with MV4;11 cells (setting [4]), 10 to 100 nM.
In the case of `COc1ccc(-c2cnn([C@H]3C[C@H](CCCNc4ccc5c(c4)C(=O)N(C4CCC(=O)NC4=O)C5=O)C3)c2)nc1` (stereo partly drawn) [GS-462, 2-(2,6-dioxopiperidin-3-yl)-5-((3-(trans-3-(4-(5-methoxypyridin-2-yl)-1H-pyrazol-1-yl)cyclobutyl)propyl)amino)isoindoline-1,3-dione], the IC50 with MOLM-13 cells (setting [1]) fell in the range of 100 to 1000 nM; with MOLM-13 cells (setting [5]), 10 to 100 nM; in the test with MV4;11 cells (setting [3]), 100 to 1000 nM; in the test on MV4;11 cells (setting [6]), 10 to 100 nM.
For the compound `O=C1CCC(N2C(=O)c3ccc(NCCc4cccc(N5CCC(n6cc(-c7cnc8ccccc8n7)cn6)CC5)c4)cc3C2=O)C(=O)N1` (stereo not drawn) [GS-152, 2-(2,6-Dioxopiperidin-3-yl)-5-((3-(4-(4-(quinoxalin-2-yl)-1H-pyrazol-1-yl)piperidin-1-yl)phenethyl)amino)isoindoline-1,3-dione], the IC50 lay within 100 to 1000 nM with MOLM-13 cells (setting [1]), 10 to 100 nM in the test with MOLM-13 cells (setting [2]), 100 to 1000 nM with MV4;11 cells (setting [3]) and 10 to 100 nM in the test with MV4;11 cells (setting [4]).
For `O=C1CCC(N2C(=O)c3ccc(NCCC[C@H]4C[C@H](n5cc(-c6cnc7c(C8CCOCC8)cccc7n6)cn5)C4)cc3C2=O)C(=O)N1` (stereo partly drawn) [GS-427, 2-(2,6-dioxopiperidin-3-yl)-5-((3-(trans-3-(4-(5-(tetrahydro-2H-pyran-4-yl)quinoxalin-2-yl)-1H-pyrazol-1-yl)cyclobutyl)propyl)amino)isoindoline-1,3-dione], the IC50 in the test with MOLM-13 cells (setting [1]) is 10 to 100 nM; in the test on MOLM-13 cells (setting [5]), below 10 nM; in the test with MV4;11 cells (setting [3]), 10 to 100 nM; in the test on MV4;11 cells (setting [6]) it was below 10 nM.
Take `O=C1CCC(N2C(=O)c3ccc(NCCCCCCn4cc(-c5cnc6ccccc6n5)c(C(F)(F)F)n4)cc3C2=O)C(=O)N1` (stereo not drawn) [GS-550, 2-(2,6-Dioxopiperidin-3-yl)-5-((6-(4-(quinoxalin-2-yl)-3-(trifluoromethyl)-1H-pyrazol-1-yl)hexyl)amino)isoindoline-1,3-dione]: the IC50 with MOLM-13 cells (setting [1]) fell in the range of 100 to 1000 nM; with MOLM-13 cells (setting [5]) it was 10 to 100 nM; with MV4;11 cells (setting [3]), 100 to 1000 nM; in the test with MV4;11 cells (setting [6]), 10 to 100 nM.
